Measured values reported in patent US8691577B2, “Somatic embryogenesis of Jatropha curcas from ovules” (Joil (S) Pte Ltd., priority 2008, dated 2014).
Entries after “also recorded” stand apart in the source; their conditions may differ.

Columns and labels:
[1] = tested on: ovule explants of Jatropha curcas; test: Induction of embryogenic callus from ovule explants on MS initiation medium; type: cell-based
Text: (§1) The initiation medium was MS basal medium (MS mineral salts and vitamins) supplemented with sucrose (3%) as the carbon source and included phytoagar (0.8%) as a gelling agent. The pH of the medium was 5.8. The germination medium was MS basal medium supplemented with sucrose (3%) as the carbon source and included phytogel (0.25%) as a gelling agent. The pH of the medium was 5.8. The media were dispensed into sterilized Petri dish (90×15 mm size, plastic polycarbonate, Canada). The chemicals used for media preparations were of analytical grade (Duchefa Biochemie, Haarlem, The Netherlands and Sigma Aldrich, Inc., St Louis, USA).
Different hormones were added to the media for the development of the method according to the present invention. In general, the media contained a reduced concentration of phytohormones. The hormones that were tested in the media were phytohormones that will affect growth in the desired manner during different stages of tissue culture. Examples of phytohormones that were tested include natural or synthetic auxin (2,4-D, indole-3-acetic acid (IAA), IBA), cytokinin (BA, KN,), GA3, or cytokinin-active urea derivatives (such as TDZ). The hormones were tested singly or in combination. For induction of embryogenic callus, only 2,4-D (2.26, 4.52, 6.78 and 9.02 μM) was effective.
(§2) The sterilized flower buds were dissected using stereo microscope and the ovules were isolated and injured using dissection needle. The injured ovule explants were inoculated onto initiation medium supplemented with different phytohormones and incubated in dark for 40 days. The callus induced from these ovules was transferred to the fresh initiation medium and cultured in the light (16/8 h (light/dark) photoperiod period, light intensity of 25 μE m^−2s^−1) for somatic embryo development and maturation. The callus with developing and maturing somatic embryos were subcultured every two weeks. The mature cotyledon shaped somatic embryos that developed from this embryogenic callus were transferred to germination medium for germination. The germinating somatic embryos were subcultured every two weeks. The germinated plantlets were hardened and transferred to green house. All cultures were maintained at 25° C.±2° C. with 55%-60% relative humidity. Approximately 12-15 mature cotyledon shaped embryos were developed per 100 mg of embryogenic callus, and 95% of the somatic embryos were developed.

[2] = tested on: embryogenic callus from ovules of Jatropha curcas; test: Somatic embryo development and maturation from embryogenic callus; type: cell-based
Experimental: as §2
Induction of callus occurred in MS medium containing different auxins and cytokinins individually as well as in combinations.

[3] = tested on: mature somatic embryos of Jatropha curcas; test: Germination of somatic embryos and growth of plantlets on MS germination medium; type: cell-based; settings: for growth of germinated plantlets: added to germination medium (MS with IBA and GA3); for germination of somatic embryos: auxin in combination with GA3 (0.72, 1.44, 2.88, 5.76 μM) in MS medium, IBA 1.23-4.92 μM, IAA 1.42-8.56 μM, NAA 1.34-8.04 μM
Text: as §1, §2

[4] = tested on: leaf explants of J. curcas; settings: Jha et al. (2007), cited from earlier work
[5] = tested on: embryogenic callus of Jatropha curcas; test: Production of double haploid plantlets by treating embryogenic callus with a mitotic inhibitor; type: cell-based
Experimental: Double haploid plants are produced by treating the embryogenic callus with a mitotic inhibitor. In one embodiment, the embryogenic callus is treated with the mitotic inhibitor for one day to three days, preferably three days. In one embodiment, the mitotic inhibitor is colchicine. In one embodiment, the embryogenic callus is treated with 0.1% to 0.5%, preferably 0.5% colchicine. In another embodiment, the mitotic inhibitor is oryzalin. In one embodiment, the embryogenic callus is treated with 0.1% to 0.5%, preferably 0.5% oryzalin. The mitotic inhibitor is added to the embryogenic callus induction medium, described above, prior to transfer of the embryogenic callus to the fresh initiation medium. The culture conditions for culturing in the presence of the mitotic inhibitor is the same as for somatic embryogenic callus induction. Following treatment with the mitotic inhibitor, the treated embryogenic callus is placed on fresh initiation medium for the development and maturation of somatic embryos and cultured as described above. The mature somatic embryos are placed on the germination medium and cultured as described above to germinate double haploid plantlets as described above.
Embryogenic callus prepared as described in Example 5 which is above to develop into somatic embryos (after forty days of embryogenic callus induction) was treated with different concentration of colchicines (0.1-1%) for three-days. The culture condition (temperature, photoperiod and light) are same as described above. After the colchicine treatment, the treated embryogenic callus was transferred to fresh initiation medium (MS medium containing 2,4-D (6.78 μM)) and cultured as described in Example 5 for the development of somatic embryos. The mature somatic embryos were transferred to germination media (MS medium fortified with GA3 and IBA) and cultured as described in Example 5 for plantlet development.

[6] = hormone alone in MS initiation medium, 2,4-D 2.26, 4.52, 6.78, 9.02 μM, IAA 0.71-5.70 μM, IBA 0.615-4.92 μM

O=C(O)COc1ccc(Cl)cc1Cl [2,4-D, 2,4-dichlorophenoxyacetic acid]
induction of embryogenic callus ([1]; MS medium supplemented with 2,4-D, dark conditions): induced embryogenic callus; also recorded: vital | induction of embryogenic callus ([1]; MS medium supplemented with 2,4-D, in the presence of light): not result in the induction of embryogenic callus | induction of embryogenic callus [1, 6]: effective in inducing embryogenic callus | somatic embryo development (globular, heart, torpedo and cotyledon-shaped) ([2]; MS medium containing 2,4-D): effective | outcome of continuous culture of somatic embryos ([2]; continuous culture in MS medium containing 2,4-D): abnormal somatic embryo formation without germination

Nc1ncnc2nc[nH]c12.O=S(=O)(O)O [AdSO4, adenine sulphate]
type of callus induced ([1]; addition to callus induction medium): induction of greenish compact callus that becomes non-embryogenic | growth of germinated plantlets ([3]; sulphate): enhanced the growth of germinated plantlets | effect on somatic embryo development ([4]; 13.6 μM added): stimulated the process of somatic embryo development

c1ccc(CNc2ncnc3nc[nH]c23)cc1 [BA, 6-benzylaminopurine]
growth of germinated plantlets [3]: enhanced the growth of germinated plantlets

O=C(O)Cc1c[nH]c2ccccc12 [IAA, indole-3-acetic acid]
induction of embryogenic callus [1, 6]: induced only non-embryogenic callus | germination of somatic embryos [3]: not effective

O=C(O)CCCc1c[nH]c2ccccc12 [IBA, indole-3-butyric acid]
induction of embryogenic callus [1, 6]: induced only non-embryogenic callus | germination of somatic embryos [3]: effective; also recorded: occurred

c1coc(CNc2ncnc3[nH]cnc23)c1 [KN, kinetin]
growth of germinated plantlets [3]: enhanced the growth of germinated plantlets | development of somatic embryos ([4]; MS medium with KN 2.3 μM and IBA 1.0 μM): developed | induction of embryogenic callus from leaf explants ([4]; MS medium with KN 9.3 μM): induced

O=C(O)Cc1cccc2ccccc12 [NAA]
germination of somatic embryos [3]: not effective

O=C(Nc1ccccc1)Nc1cnns1 [TDZ, thidiazuron]
growth of germinated plantlets [3]: enhanced the growth of germinated plantlets

COc1cc2c(c(OC)c1OC)-c1ccc(OC)c(=O)cc1[C@@H](NC(C)=O)CC2 [colchicines, colchicine]
most effective concentration for production of double haploid plantlets ([5]; 0.1-1% tested, three days treatment of embryogenic callus): 0.5% | effect on callus at higher concentration ([5]; concentration above 0.5%): callus become brown and died | morphological characters of treated plantlets ([5]; plantlets from treated embryogenic callus): like double haploid
